The text below walks through data of US20080114007A1 (priority 2006, published 2008).

CSF-1R, sequence (P07333 20-972): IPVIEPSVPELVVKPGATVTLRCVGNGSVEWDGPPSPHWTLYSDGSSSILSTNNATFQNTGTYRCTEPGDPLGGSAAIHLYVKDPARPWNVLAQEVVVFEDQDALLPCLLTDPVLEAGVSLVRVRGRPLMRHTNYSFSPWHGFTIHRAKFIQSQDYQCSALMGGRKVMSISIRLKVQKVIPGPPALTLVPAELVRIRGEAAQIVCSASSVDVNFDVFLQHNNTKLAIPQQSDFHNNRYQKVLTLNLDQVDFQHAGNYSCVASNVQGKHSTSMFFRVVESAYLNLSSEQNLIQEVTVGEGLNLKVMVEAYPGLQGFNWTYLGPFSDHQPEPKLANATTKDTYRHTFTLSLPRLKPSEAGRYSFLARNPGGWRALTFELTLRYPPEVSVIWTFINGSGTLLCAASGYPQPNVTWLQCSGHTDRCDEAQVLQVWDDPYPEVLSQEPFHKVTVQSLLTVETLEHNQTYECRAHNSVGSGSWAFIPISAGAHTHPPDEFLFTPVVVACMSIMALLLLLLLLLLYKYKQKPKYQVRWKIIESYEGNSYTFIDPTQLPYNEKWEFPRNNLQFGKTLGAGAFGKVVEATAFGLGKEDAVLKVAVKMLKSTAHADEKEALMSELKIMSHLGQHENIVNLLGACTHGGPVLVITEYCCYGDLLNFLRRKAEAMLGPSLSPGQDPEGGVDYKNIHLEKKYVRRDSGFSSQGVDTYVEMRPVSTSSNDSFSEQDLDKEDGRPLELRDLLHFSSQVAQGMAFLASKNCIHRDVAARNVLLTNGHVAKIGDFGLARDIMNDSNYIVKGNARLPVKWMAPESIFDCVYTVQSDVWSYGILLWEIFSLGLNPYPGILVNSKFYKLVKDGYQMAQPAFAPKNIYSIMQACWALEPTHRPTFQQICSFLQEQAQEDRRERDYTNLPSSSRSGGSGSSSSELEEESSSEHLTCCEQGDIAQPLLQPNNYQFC

One test addresses CSF-1R (Homo sapiens, UniProt P07333). As to the kind of experiment: Peptide (non-phosphorylated) assay, fluorescence polarization competition immunoassay. The settings on record: 0.7 nM CSF-1R, 308 μM SYEGNSYTFIDPTQ peptide, 1 mM ATP, 80 min; mean of at least three determinations; read-out: c-fms Peptide IC50. The class given is biochemical. Put shortly:
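Read-out is fluorescence polarization: after EDTA quench, anti-phosphotyrosine antibody plus PTK green tracer compete with the phosphorylated peptide for 30 min. The CSF-1R reaction itself ran 80 min at room temperature after ATP addition. DMSO (4%) wells served as controls, positive controls pre-treated with EDTA.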
For orientation: In fluorescence polarisation assays a small probe gives low polarisation when free and higher when bound to something large.
For the compound `CONC(=O)c1cn(-c2ccc3c(c2)CCC3)c2nc(Nc3ccc(CCN4CCN(C(C)=O)CC4)cc3)ncc2c1=O` [Cpd 145, 2-{4-[2-(4-acetyl-piperazin-1-yl)-ethyl]-phenylamino}-8-indan-5-yl-5-oxo-5,8-dihydro-pyrido[2,3-d]pyrimidine-6-carboxylic acid methoxy-amide], the half-maximal inhibitory concentration (IC50) is 1.2 nM.

Take `CONC(=O)c1cn(-c2ccc(OC(F)(F)F)cc2)c2nc(Nc3ccc(C4CCNCC4)cc3)ncc2c1=O` [Cpd 176, 5-oxo-2-(4-piperidin-4-yl-phenylamino)-8-(4-trifluoromethoxyphenyl)-5,8-dihydro-pyrido[2,3-d]pyrimidine-6-carboxylic acid methoxy-amide]: the IC50 was 0.59 nM.

Turning to `CONC(=O)c1cn(-c2ccc3c(c2)CCC3)c2nc(Nc3ccc(CCN4CCC5(CC4)OCCCO5)cc3)ncc2c1=O` [Cpd 73, 2-{4-[2-(1,5-dioxa-9-aza-spiro[5.5]undec-9-yl)-ethyl]-phenylamino}-8-indan-5-yl-5-oxo-5,8-dihydro-pyrido[2,3-d]pyrimidine-6-carboxylic acid methoxy-amide], the IC50 stood at 0.84 nM.

Turning to `CONC(=O)c1cn(C2CCC(C)(C)CC2)c2nc(Nc3ccc(C4CCN(CCO)CC4)cc3)ncc2c1=O` [Cpd 210, 8-(4,4-dimethyl-cyclohexyl)-2-{4-[1-(2-hydroxy-ethyl)-piperidin-4-yl]-phenylamino}-5-oxo-5,8-dihydro-pyrido[2,3-d]pyrimidine-6-carboxylic acid methoxy-amide], the IC50 worked out at 0.25 nM.

Take `CCONC(=O)c1cn(C2CCCC2)c2nc(Nc3ccc(CCN4CCN(C)CC4)cc3)ncc2c1=O` [Cpd 49, 8-cyclopentyl-2-{4-[2-(4-methyl-piperazin-1-yl)-ethyl]-phenylamino}-5-oxo-5,8-dihydro-pyrido[2,3-d]pyrimidine-6-carboxylic acid ethoxy-amide]: the IC50 stood at 1.7 nM.

Turning to `CONC(=O)c1cn(-c2ccc3c(c2)CCC3)c2nc(Nc3ccc(CCN4CCN(CC(F)(F)F)CC4)cc3)ncc2c1=O` [Cpd 149, 8-indan-5-yl-5-oxo-2-(4-{2-[4-(2,2,2-trifluoro-ethyl)-piperazin-1-yl]-ethyl}-phenylamino)-5,8-dihydro-pyrido[2,3-d]pyrimidine-6-carboxylic acid methoxy-amide], the IC50 was found to be 2.6 nM.

Regarding `CONC(=O)c1cn(C2CCCCC2)c2nc(Nc3ccc(C4CCNCC4)cc3)ncc2c1=O` [Cpd 26, 8-cyclohexyl-5-oxo-2-(4-piperidin-4-yl-phenylamino)-5,8-dihydro-pyrido[2,3-d]pyrimidine-6-carboxylic acid methoxy-amide], the IC50 worked out at 1.4 nM.

With `CONC(=O)c1cn(-c2ccc3c(c2)CCC3)c2nc(Nc3cccc(C4(O)CCN(CC(F)(F)F)CC4)c3)ncc2c1=O` [Cpd 277, 2-{3-[4-hydroxy-1-(2,2,2-trifluoro-ethyl)-piperidin-4-yl]-phenylamino}-8-indan-5-yl-5-oxo-5,8-dihydro-pyrido[2,3-d]pyrimidine-6-carboxylic acid methoxy-amide], the IC50 was 2.7 nM.

In the case of `CONC(=O)c1cn(C2CCCCC2)c2nc(Nc3ccc(CCN4CCOCC4)cc3)ncc2c1=O` [Cpd 20, 8-cyclohexyl-2-[4-(2-morpholin-4-yl-ethyl)-phenylamino]-5-oxo-5,8-dihydro-pyrido[2,3-d]pyrimidine-6-carboxylic acid methoxy-amide], the IC50 was 3 nM.

Turning to `CN1CCN(CCc2ccc(Nc3ncc4c(=O)c(C(=O)NCCO)cn(-c5ccc6c(c5)CCC6)c4n3)cc2)CC1` [Cpd 65, 8-indan-5-yl-2-{4-[2-(4-methyl-piperazin-1-yl)-ethyl]-phenylamino}-5-oxo-5,8-dihydro-pyrido[2,3-d]pyrimidine-6-carboxylic acid (2-hydroxy-ethyl)-amide], the IC50 turned out to be 0.68 nM.

As to `CCONC(=O)c1cn(C2CCCC2)c2nc(Nc3ccc(C4CCN(C(C)=O)CC4)cc3)ncc2c1=O` [Cpd 47, 2-[4-(1-acetyl-piperidin-4-yl)-phenylamino]-8-cyclopentyl-5-oxo-5,8-dihydro-pyrido[2,3-d]pyrimidine-6-carboxylic acid ethoxy-amide], the IC50 turned out to be 1.9 nM.

With `CCc1ccc(-n2cc(C(=O)NOC)c(=O)c3cnc(Nc4ccc(-c5cccc(OC)c5)cc4)nc32)cc1` [Cpd 299, 8-(4-ethyl-phenyl)-2-(3′-methoxy-biphenyl-4-ylamino)-5-oxo-5,8-dihydro-pyrido[2,3-d]pyrimidine-6-carboxylic acid methoxy-amide], the IC50 worked out at 32 nM.

As for `CONC(=O)c1cn(-c2ccc3c(c2)CCC3)c2nc(Nc3cccc(N4CCN(C(C)=O)CC4)c3)ncc2c1=O` [Cpd 196, 2-[3-(4-acetyl-piperazin-1-yl)-phenylamino]-8-indan-5-yl-5-oxo-5,8-dihydro pyrido[2,3-d]pyrimidine-6-carboxylic acid methoxy-amide], the IC50 is 1.7 nM.

As to `CONC(=O)c1cn(-c2ccc(Cl)cc2)c2nc(Nc3ccc(CCN4CCN(C)CC4)cc3)ncc2c1=O` [Cpd 34, 8-(4-chloro-phenyl)-2-{4-[2-(4-methyl-piperazin-1-yl)-ethyl]-phenylamino}-5-oxo-5,8-dihydro-pyrido[2,3-d]pyrimidine-6-carboxylic acid methoxy-amide], the IC50 is 3.8 nM.

`CCc1ccc(-n2cc(C(=O)NOC)c(=O)c3cnc(Nc4ccc(C5CCN(CCCO)CC5)cc4)nc32)cc1` [Cpd 185, 8-(4-ethyl-phenyl)-2-{4-[1-(3-hydroxy-propyl)-piperidin-4-yl]-phenylamino}-5-oxo-5,8-dihydro-pyrido[2,3-d]pyrimidine-6-carboxylic acid methoxy-amide]: the IC50 amounted to 0.6 nM.

Consider `CCc1ccc(-n2cc(C(=O)NOC)c(=O)c3cnc(Nc4cccc(OC5CCCNC5)c4)nc32)cc1` (centres unmarked) [Cpd 248, 8-(4-ethyl-phenyl)-5-oxo-2-[3-(piperidin-3-yloxy)-phenylamino]-5,8-dihydro-pyrido[2,3-d]pyrimidine-6-carboxylic acid methoxy-amide], for which the IC50 is 0.43 nM.

`O=C(c1cn(C2CCCC2)c2nc(Nc3ccc(CCN4CCCC4)cc3)ncc2c1=O)N1CCOCC1` [Cpd 42, 8-cyclopentyl-6-(morpholine-4-carbonyl)-2-[4-(2-pyrrolidin-1-yl-ethyl)-phenylamino]-8H-pyrido[2,3-d]pyrimidin-5-one]: the IC50 worked out at 57 nM.

`COCCNC(=O)c1cn(-c2ccc3c(c2)CCC3)c2nc(Nc3ccc(CCN4CCCC4)cc3)ncc2c1=O` [Cpd 132, 8-indan-5-yl-5-oxo-2-[4-(2-pyrrolidin-1-yl-ethyl)-phenylamino]-5,8-dihydro-pyrido[2,3-d]pyrimidine-6-carboxylic acid (2-methoxy-ethyl)-amide]: the IC50 was found to be 12 nM.

Regarding `CCc1ccc(-n2cc(C(=O)NOC)c(=O)c3cnc(Nc4ccc(C5CCN(CC)CC5)cc4)nc32)cc1` [Cpd 157, 8-(4-ethyl-phenyl)-2-[4-(1-ethyl-piperidin-4-yl)-phenylamino]-5-oxo-5,8-dihydro-pyrido[2,3-d]pyrimidine-6-carboxylic acid methoxy-amide], the IC50 came to 0.4 nM.

Still in this test, the particulars now being: c-fms Peptide IC50, 0.7 nM CSF-1R, 308 μM SYEGNSYTFIDPTQ peptide, 1 mM ATP, 80 min; mean of at least three determinations.
Compound `CONC(=O)c1cn(-c2ccc3c(c2)CCC3)c2nc(Nc3ccc(CCS(=O)(=O)NC(C)=O)cc3)ncc2c1=O` [Cpd 90, 2-[4-(2-acetylsulfamoyl-ethyl)-phenylamino]-8-indan-5-yl-5-oxo-5,8-dihydro-pyrido[2,3-d]pyrimidine-6-carboxylic acid methoxy-amide] had an IC50 of 2.4 nM.

What is called IC50 is the midpoint of a concentration-inhibition curve.
